# Structures can show the parent of a compound that is named as a salt.
# Tests used:
# [1] = system: OMC9 sarcoma (leiomyosarcoma); assay: anti-tumor activity, OMC9 xenograft in nude mice; assay type: in vivo, human; settings: OMC9 model, BALB/c nu/nu mice, i.v. day 0 and day 7, start tumor volume 150 mm^3, log RTV, day 7-day 35
# Source text: (§1) Cancer cell lines were purchased from the Riken Bioresource Center (RBC, Japan (Ibaraki)), American Type Culture Collection (ATCC, USA (Manassas, Va.)), Deutsche Sammlung von Mikroorganismen and Zellkulturen GmbH (German Collection of Microorganisms and Cell Cultures GmbH: DSMZ, Germany (Braunschweig)), Health Science Research Resource Bank (HSRRB, Japan (Osaka)), and the DS Pharma Biomedical Co., Ltd. (DS-Pharma, Japan (Osaka)), and were kindly donated by the Kyushu Cancer Center, Kagoshima University, and the Cell Resource Center for Biomedical Research of the Institute of Development, Aging, and Cancer of Tohoku University.
# (§2) In the tables, the cancer cell lines to which “*” is added in the “acclimation” column were obtained from grown tumors which were formed by subcutaneously inoculating each cancer cell line to a mouse in advance.
# (§3) On the initial day of inoculation, the cancer cells were harvested by trypsinization and were washed and suspended using the particular medium. Some of the harvested cancer cells were then mixed with GelTrex (Gibco, #12760-021 or A14132-02) at 1:1. […]
# (§4) The tumor size was measured over time with a caliper, and the tumor volume was determined based on the following calculation formula. tumor volume (mm^3)=length (mm)×square of width (mm^2)×½ […]
# [2] = system: MES-SA sarcoma (leiomyosarcoma); assay: anti-tumor activity, MES-SA xenograft in nude mice; assay type: in vivo, human
# Source text: as §1, §2, §3, §4
# [3] = system: SK-UT-1 sarcoma (leiomyosarcoma); assay: anti-tumor activity, SK-UT-1 xenograft in nude mice; assay type: in vivo, human; settings: day 3-day 10
# Source text: as §1, §2, §3, §4
# [4] = system: SK-LMS-1 sarcoma (leiomyosarcoma); assay: anti-tumor activity, SK-LMS-1 xenograft in nude mice; assay type: in vivo, human; settings: SK-LMS-1 model, i.v. day 0 and day 7, start tumor volume 290 mm^3, log RTV, day 2-day 7
# Source text: as §1, §2, §3, §4
# [5] = system: A673 sarcoma (Ewing sarcoma); assay: anti-tumor activity, A673 xenograft in nude mice; assay type: in vivo, human; settings: A673 model, i.v. day 0 and day 7, start tumor volume 220 mm^3, log RTV, day 4-day 18
# Source text: as §1, §2, §3, §4
# [6] = system: MFE-280 uterine cancer (endometrial cancer); assay: anti-tumor activity, MFE-280 xenograft in nude mice; assay type: in vivo, human; settings: MFE-280 model, i.v. day 0 and day 7, start tumor volume 200 mm^3, log RTV, day 4-day 14
# Source text: as §1, §2, §3, §4
# [7] = system: MFE-296 uterine cancer (endometrial cancer); assay: anti-tumor activity, MFE-296 xenograft in nude mice; assay type: in vivo, human; settings: MFE-296 model, i.v. day 0 and day 7, start tumor volume 200 mm^3, log RTV, day 4-day 14
# Source text: as §1, §2, §3, §4
# [8] = system: HEC-151 uterine cancer (endometrial cancer); assay: anti-tumor activity, HEC-151 xenograft in nude mice; assay type: in vivo, human; settings: HEC-151 model, i.v. day 0 and day 7, start tumor volume 220 mm^3, log RTV, day 3-day 14
# Source text: as §1, §2, §3, §4
# [9] = system: ECC-1 uterine cancer (endometrial cancer); assay: anti-tumor activity, ECC-1 xenograft in nude mice; assay type: in vivo, human; settings: ECC-1 model, i.v. day 0 and day 7, start tumor volume 160 mm^3, log RTV, day 4-day 19
# Source text: as §1, §2, §3, §4
# [10] = system: KB (HeLa) uterine cancer (cervical cancer); assay: anti-tumor activity, KB (HeLa) xenograft in nude mice; assay type: in vivo, human; settings: KB (HeLa) model, i.v. day 0 and day 7, start tumor volume 150 mm^3, log RTV, day 7-day 14
# Source text: as §1, §2
# The KB cells indicated as a cancer cell line in Table 2 were originally thought to be derived from an epithelial cancer. […] In addition, ITS-G supplement (Wako Pure Chemical Industries, Ltd., #090-06741) was used as the ITS. […]
# as §4
# AsPC-1 pancreatic cancer = assay: anti-tumor activity, AsPC-1 xenograft in nude mice; assay type: in vivo, human; settings: AsPC-1 model, i.v. day 0 and day 7, start tumor volume 380 mm^3, log RTV, day 3-day 35
# Source text: as §1, §2, §3, §4
# BXPC-3 pancreatic cancer = assay: anti-tumor activity, BXPC-3 xenograft in nude mice; assay type: in vivo, human; settings: BXPC-3 model, i.v. day 0 and day 7, start tumor volume 120 mm^3, log RTV, day 7-day 21
# Source text: as §1, §2, §3, §4
# KP-1 pancreatic cancer = assay: anti-tumor activity, KP-1 xenograft in nude mice; assay type: in vivo, human; settings: KP-1 model, i.v. day 0 and day 7, start tumor volume 200 mm^3, log RTV, day 3-day 14
# Source text: as §1, §2
# as §3, with “1:1. Using a 26-gauge syringe needle, these cells were inoculated at a volume of 0.1 mL into the vicinity of the right axillary region of mice (BALB/c nu/nu).” for “1:1.”
# K1 thyroid cancer = assay: anti-tumor activity, K1 xenograft in nude mice; assay type: in vivo, human; settings: K1 model, i.v. day 0 and day 7, start tumor volume 390 mm^3, log RTV, day 3-day 17
# Source text: as §1, §2, §3, §4
# [11] = system: U251MG brain tumor (glioblastoma); assay: anti-tumor activity, U251MG xenograft in nude mice; assay type: in vivo, human; settings: U251MG model, i.v. day 0 and day 7, start tumor volume 150 mm^3, log RTV, day 5-day 23
# Source text: as §1, §2
# as §3, with “1:1. Using a 26-gauge syringe needle, these cells were inoculated at a volume of 0.1 mL into the vicinity of the right axillary region of mice (BALB/c nu/nu).” for “1:1.”
# [12] = system: PLC/PRF/5 liver cancer (hepatocellular carcinoma); assay: anti-tumor activity, PLC/PRF/5 xenograft in nude mice; assay type: in vivo, human; settings: PLC/PRF/5 model, i.v. day 0 and day 7, start tumor volume 180 mm^3, log RTV, day 4-day 18
# Source text: as §1, §2, §3, §4
# Hs746T stomach cancer = assay: anti-tumor activity, Hs746T xenograft in nude mice; assay type: in vivo, human; settings: Hs746T model, i.v. day 0 and day 7, start tumor volume 180 mm^3, log RTV, day 4-day 11
# Source text: as §1, §2, §3, §4
# [13] = system: UM-UC-3 urothelial cancer (bladder cancer); assay: anti-tumor activity, UM-UC-3 xenograft in nude mice; assay type: in vivo, human
# Source text: as §1, §2, §3, §4
# human xenograft models = assay: anti-tumor activity, summary over the 18 human xenograft models; assay type: in vivo; settings: in all 18 human xenograft models, RM-ANOVA using log RTV, P<0.05
# Source text: as §1, §2, §3, §4
structure (smiles),measurement,setting,value
"C=C1C[C@@H]2CC[C@@]34C[C@H]5O[C@H]6[C@@H](O3)[C@H]3O[C@H](CC[C@@H]3O[C@H]6[C@H]5O4)CC(=O)C[C@@H]3[C@@H](OC)[C@@H](C[C@H](O)CN)O[C@H]3C[C@H]3O[C@@H](CC[C@@H]1O2)C[C@@H](C)C3=C [E7389, eribulin mesylate]",RM-ANOVA E7389 vs vehicle,[1],Yes 1
same,RM-ANOVA E7389 vs vehicle,"[2]; MES-SA model (Table 2 conditions), i.v. day 0 and day 7, start tumor volume 190 mm^3, log RTV, day 4-day 18",Yes 1
same,RM-ANOVA E7389 vs vehicle,"[2]; MES-SA model (Table 3 conditions), i.v. day 0 and day 7, start tumor volume 420 mm^3, log RTV, day 3-day 7",Yes 1
same,RM-ANOVA E7389 vs vehicle,"[3]; SK-UT-1 model (Table 2 conditions), i.v. day 0 and day 7, start tumor volume 260 mm^3, log RTV",Yes 1
same,RM-ANOVA E7389 vs vehicle,"[3]; SK-UT-1 model (Table 3 conditions), i.v. day 0 and day 7, start tumor volume 290 mm^3, log RTV",Yes 1
same,RM-ANOVA E7389 vs vehicle,[4],Yes 1
same,RM-ANOVA E7389 vs vehicle,[5],Yes 1
same,RM-ANOVA E7389 vs vehicle,[6],Yes 1
same,RM-ANOVA E7389 vs vehicle,[7],Yes 1
same,RM-ANOVA E7389 vs vehicle,[8],Yes 1
same,RM-ANOVA E7389 vs vehicle,[9],Yes 1
same,RM-ANOVA E7389 vs vehicle,[10],Yes 1
same,RM-ANOVA E7389 vs vehicle,AsPC-1 pancreatic cancer,Yes 1
same,RM-ANOVA E7389 vs vehicle,BXPC-3 pancreatic cancer,Yes 1
same,RM-ANOVA E7389 vs vehicle,KP-1 pancreatic cancer,Yes 1
same,RM-ANOVA E7389 vs vehicle,K1 thyroid cancer,Yes 1
same,RM-ANOVA E7389 vs vehicle,[11],Yes 1
same,RM-ANOVA E7389 vs vehicle,[12],Yes 1
same,RM-ANOVA E7389 vs vehicle,Hs746T stomach cancer,Yes 1
same,RM-ANOVA E7389 vs vehicle,"[13]; UM-UC-3 model (Table 2 conditions), i.v. day 0 and day 7, start tumor volume 230 mm^3, log RTV, day 3-day 10",Yes 1
same,RM-ANOVA E7389 vs vehicle,"[13]; UM-UC-3 model (Table 3 conditions), i.v. day 0 and day 7, start tumor volume 190 mm^3, log RTV, day 3-day 14",Yes 1
same,anti-tumor activity compared to the vehicle group,human xenograft models,statistically significant

# Reference: patent US12029724B2, “Method for inhibiting tumor growth” (Eisai R&D Management Co., Ltd., priority 2016, dated 2024)
